Literature values in US11208393B2, “Methods for extraction, processing, and purification of a selected family of target compounds from cannabis” (Nectar Health Sciences Inc., priority 2019, dated 2021).

Conditions: of the protonated amine (ammonium ion)

Structure (SMILES)	pKa
CN(C)CCO [(CH3)2NHCH2OH^+, dimethylethanolamine]	9.3
C1CN2CCN1CC2 [DABCO, 1,4-diazabicyclo[2.2.2]octane]	8.9
CN(C)CCN(C)C [TMEDA, tetramethylethylenediamine]	9.0
